pIC50: −log10 of the molar value. Where two headings read alike, the source gives them in different places.

The source of these data is article PMC9140716, “Light-Control over Casein Kinase 1δ Activity with Photopharmacology: A Clear Case for Arylazopyrazole-Based Inhibitors” (International Journal of Molecular Sciences, 2022).

In data set [1] the target is T1, CK1δ (Homo sapiens, UniProt P48730). Briefly: In vitro kinase assay (ATP consumption, Kinase Glo), 'dark' and UV-irradiated 'light' samples. The format is biochemical. As to conditions: for degree of CK1δ inhibition reached in dose-response curve: 'light' and/or 'dark' samples; for difference in activity (potency) between 'light' and 'dark' states: irradiated (365 nm) vs thermally adapted sample, 'light' more potent. The procedure:
After evaluating the photochemical properties of the three photoswitches DK398, DK518, and DK557 in detail, an in vitro kinase activity assay was performed. In this assay, the inhibitory activity towards CK1δ of both dark (all-trans) and irradiated (cis-enriched) samples was evaluated to construct dose–response curves for both states. During the enzymatic reaction (2 h), samples were either kept in the dark or irradiated with UV light (λmax = 365 nm). UV light irradiation itself was confirmed to have no effect on CK1δ activity (Figure S9). After the enzymatic reaction, ATP consumption was measured to determine enzyme activity. The ATP consumption of the samples containing the photoswitchable inhibitors was compared to the ATP consumption of a DMSO control to assess the degree of enzyme inhibition.
In vitro kinase assay. Stock solutions (2.0 mM) of the photoswitchable LH846 inhibitors were prepared in DMSO and thermally adapted by heating to c.a. 100 °C for 1 min. Dilutions were made in DMSO to reach 21-fold concentrated solutions of the desired concentrations to be tested in the assay. The assays were performed on white, solid-bottom 384-well plates and electronic, hand-held Gilson pipettes were used. The total volume for the reaction was 10.5 µL. All solutions were applied to the well plate in a dark room to prevent ambient-light-induced photo-isomerisation. Firstly, a solution of CK1δ and substrate peptide RKKKAEpSVASLTSQCSYSS (Anaspec Fermont, CA, USA, custom made) in a kinase assay buffer was aliquoted into the bottom of the wells (9 µL). Next, the 21-fold concentrated solutions of the compound (0.5 μL, final 4.8% DMSO) was pipetted into the bottom of the wells. Lastly, a solution of ATP in water (50 µM, 1 μL) was pipetted into the upper corners of each well (final concentration 4.8 µM). Final concentrations of CK1δ and the substrate peptide were 2 ng/µL and 50 µM, respectively. The enzymatic reaction was started by spinning down the plate (1800× g, 2 min). By employing this method, all reactions were started at the same time, minimising variance between different samples. During the assay, ‘light’ samples were irradiated with UV light (λ = 365 nm, UV lamp Spectroline, ENB-280/FE, 1 × 8 Watt) for the full duration of the assay (2 h). The wells of ‘dark’ samples were carefully covered with an aluminium sticker. After the incubation period (2 h at 30 °C), 10 μL Kinase Glo® (Promega, Madison, WI, USA) was applied into the wells and the luminescent signal was recorded by a plate reader (BioTek Synergy H1). All measurements were carried out in triplicate. Enzyme activity was determined by comparing the ATP consumption of the samples containing the LH846-analogues to that of a DMSO control, set as 100% enzyme activity.
A general note: In Kinase-Glo more light means more ATP remaining.

Data set [2] in a line: Reductive stability (DTT), UPLC-MS after incubation in buffer. The format is physicochemical. The conditions noted are these: 10 µM, 0.5 mM DTT, 10 mM MgCl2, pH 7.4, 2 h at 30 °C. Here is the method: (§1) Lastly, the chemical stability of the photoswitches was evaluated in the kinase assay buffer. To avoid the oxidation of the kinase substrate peptide, the buffer contains dithiothreitol (DTT) as a reducing agent. Therefore, we presumed that performing multiple switching cycles in this buffer would allow us to gain insight into both the photochemical- and chemical stability of the three photoswitches. […] We hypothesise that the instability of DK398 in the assay buffer was caused due to either poor solubility or interactions with buffer components, such as the BSA protein.
Reductive stability (DTT)
Figure S8. UV-traces (λ = 312 nm) of UPLC-MS measurements after incubation of DK518, DK398 and
DK557 in buffer (10 µM, 0.5 mM DTT, 10 mM MgCl2, pH 7.4) for 2h at 30 °C. Traces show the presence of […]

Data set [3] in a line: Reversible switching cycles in kinase assay buffer containing DTT ((photo)chemical stability). The data set is classed as physicochemical. The conditions noted are these: kinase assay buffer with 0.5 mM DTT, 365 nm / 445 nm irradiation. Here is the method:
as §1
Photochemical evaluation. UV-Vis absorption spectra were recorded on an Agilent 8453 UV-Visible spectrophotometer equipped with an irradiation set-up containing a 365 and 445 nm LED. Stock solutions of DK398, DK518, and DK557 were prepared in DMSO (2.0 mM) and were diluted 100-fold in kinase assay buffer (40 mM Tris-HCl, 10 mM MgCl2, 0.5 mM DTT, 0.1 mg/mL BSA, pH 7.4, final 1% DMSO) or DMSO for spectroscopic characterisation. Reversible switching cycles were performed in a kinase assay buffer to evaluate the (photo)chemical stability. All three compounds were irradiated using UV light (λmax = 365 nm) to perform trans-to-cis isomerisation and blue light (λmax = 445 nm) for the back-reaction. The irradiation time was adjusted to the compound until the corresponding PSS was achieved.
Figure 2 (a) Structures and irradiation-dependent interconversion of the trans and cis isomers of DK398, DK518, and DK557; (b) UV-Vis absorption spectra of DK398, DK518, and DK557 in kinase assay buffer (10–20 µM, 4.8% DMSO) in the thermally adapted (all trans) and irradiated forms; (c) isomer distribution in the photostationary state (pie charts). The pink region represents the percentage of cis-isomer in the PSD as determined by ^1H-NMR (DMSO-d6). […]

The target of data set [4] is T1, CK1δ. Further details: method as in PMID 21954091. The conditions noted are these: parent inhibitor; read-out: IC50 of LH846 towards CK1δ; cited from earlier work.
[5] abbreviates: 'dark' (all-trans, thermally adapted) samples, 2 h at 30 °C, 4.8 µM ATP, read-out: 50 % inhibition: dark (absolute IC50).
Setting [6] is: 'light' (cis-enriched) samples irradiated with UV light 365 nm for the full 2 h, 30 °C, 4.8 µM ATP, read-out: 50 % inhibition: light (absolute IC50).

T1 sequence (P48730 whole entry): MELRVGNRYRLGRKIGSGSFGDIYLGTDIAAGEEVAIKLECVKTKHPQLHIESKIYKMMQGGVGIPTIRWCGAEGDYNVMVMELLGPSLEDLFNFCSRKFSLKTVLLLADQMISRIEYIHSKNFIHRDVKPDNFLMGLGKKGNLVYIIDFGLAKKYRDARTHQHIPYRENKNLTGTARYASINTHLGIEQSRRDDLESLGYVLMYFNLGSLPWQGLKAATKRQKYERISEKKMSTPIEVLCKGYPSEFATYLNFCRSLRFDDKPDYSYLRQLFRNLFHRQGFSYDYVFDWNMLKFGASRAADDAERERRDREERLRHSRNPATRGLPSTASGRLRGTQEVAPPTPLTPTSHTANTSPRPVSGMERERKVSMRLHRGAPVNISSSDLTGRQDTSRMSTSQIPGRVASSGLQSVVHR

As to `Cc1cc2sc(NC(=O)Cc3ccc(/N=N/c4ccccc4)cc3)nc2cc1Cl` [DK398], the negative-log IC50 (pIC50) (as a rule, the negative decadic logarithm of the IC50, by convention in mol/L) in data set [1] (setting [5]) is less than 5.00. The pIC50 in data set [1] (setting [6]) is roughly 6.00. In addition, in data set [1], the “degree of CK1δ inhibition reached in dose-response curve” value (“degree of CK1δ inhibition reached” below) was “incomplete inhibition”; the “difference in activity (potency) between 'light' and 'dark' states” value (shortened to “difference in activity”) is roughly 10 fold. The “stability against reduction by DTT” value in data set [2] is on record as “No reduction products (hydrazine or aniline) were observed”. Moreover, the “stability over multiple switching cycles” value in data set [3] was “poor stability”.

`Cc1cc2sc(NC(=O)Cc3cccc(/N=N/c4ccccc4)c3)nc2cc1Cl` [DK518]: the negative-log IC50 (pIC50) in data set [1] (setting [5]) is 6.47; in data set [1] (setting [6]) it was 6.46; in data set [1] (both 'light' and 'dark' samples, read-out: IC50 values towards CK1δ), roughly 6.46. Also, the “degree of CK1δ inhibition reached” value in data set [1] is “achieved complete enzyme inhibition”. Besides, the “difference in activity” value in data set [1] was “completely abolished the difference in activity”. Further, the “stability against reduction by DTT” value in data set [2] is reported as “No reduction products (hydrazine or aniline) were observed”. In addition, the “stability over multiple switching cycles” value in data set [3] is “excellent stability”.

Consider `Cc1cc2sc(NC(=O)Cn3nc(C)c(/N=N/c4ccccc4)c3C)nc2cc1Cl` [DK557], for which the pIC50 in data set [1] (setting [5]) was 4.94. The pIC50 in data set [1] (setting [6]) is 5.92. Moreover, in data set [1], the “degree of CK1δ inhibition reached” value is “complete enzyme inhibition upon irradiation”; the “difference in activity” value is listed as roughly 10 fold. In data set [2], the “stability against reduction by DTT” value is on record as “No reduction products (hydrazine or aniline) were observed”. The “stability over multiple switching cycles” value in data set [3] is “excellent stability”.

In the case of `Cc1cc2sc(NC(=O)Cc3ccccc3)nc2cc1Cl` [LH846], the pIC50 in data set [4] is 6.54.
